The record followed here is patent publication US12516041B2, “Crystal forms of GLP-1R agonists and uses thereof” (QILU REGOR THERAPEUTICS INC., priority 2020, dated 2026).

What all share (format): physicochemical
Series [1] is described as follows: Solid-state stability study (HPLC purity, XRPD). How it is done:
XRPD patterns were identified with an X-ray diffractometer (PANalytical Empyrean). The system was equipped with PIXcel^1D detector. Samples were scanned from 3 to 40° 2θ, at a step size of 0.013° 2θ. The tube voltage and current were 45 KV and 40 mA, respectively.
(§1) HPLC analysis was performed with an Agilent HPLC 1260 series instrument.
(§2) HPLC Method for Stability and Solubility Testing
About 25 mg of free acid Form I was placed at 60° C./capped and 40° C./75% RH (open) conditions for up to 12 days. At day 0 and 7, the sample was dissolved in diluent to prepare 0.5 mg/mL solution for HPLC purity analysis. Solid samples were analyzed by XRPD to check the crystal form at day 12.

Series [2] can be described thus: Solubility test in bio-relevant media (SGF, FeSSIF, FaSSIF), HPLC of filtrate, XRPD of filter cake. The note with it: for solubility at 24 h / solubility at 0.5 h / solubility at 2 h: 37 °C, thermodynamic from solid; for solubility at 24 h: read-out: Solubility (μg/mL) 24 h; for solubility at 0.5 h: read-out: Solubility (μg/mL) 0.5 h; for solubility at 2 h: read-out: Solubility (μg/mL) 2 h. The method, then:
as §1, §2
The solubility of free acid Form I was tested in bio-relevant media (Simulated Gastric Fluid (SGF), Fasted-State Simulated Intestinal Fluid (FaSSIF) and Fed-State Simulated Intestinal Fluid (FeSSIF)) at 37° C. for up to 24 hours. About 15 mg of the sample was weighed into sample vial, and then 5.0 mL of bio-relevant media was added to make suspension. All suspensions prepared were shaken @ 600 rpm with a QQMSC-100 shaker at 37° C. At 0.5, 2 and 24 hours, about 1000 μL of each suspension was filtered and diluted, and then the filtrate was analyzed by HPLC to test the solubility. The pH of the filtrate was measured, and the filter cake was analyzed by XRPD.

Series [3] can be described thus: Dynamic Vapor Sorption (DVS). An excerpt: Moisture sorption/desorption data was collected on a Vsorp Dynamic Moisture Sorption Analyzer (ProUmid GmbH & Co. KG, Germany). The sample was placed into a tared sample chamber and automatically weighed.
The product obtained from preparation method 1 was characterized by XRPD (FIG. 1), TGA, DSC (FIG. 2), DVS (FIG. 3), and ^1H-NMR.

Each structure is given as a SMILES string. Values after ≈ are worked out from the molar mass of the structure shown. Like-named read-outs stand apart in the source and are kept apart here.

For the molecule `O=C(O)c1ccc2nc(Cc3ccc(-c4cccc(OCc5ccc(Cl)cc5F)n4)cc3F)n(C[C@@H]3CCO3)c2c1` [Free Acid Form I, (S)-2-(4-(6-((4-chloro-2-fluorobenzyl)oxy)pyridin-2-yl)-2-fluorobenzyl)-1-(oxetan-2-ylmethyl)-1H-benzo[d]imidazole-6-carboxylic acid], the “Purity-1 week (Area %) 40° C./75% RH, 1 week” value in series [1] (40° C./75% RH (open), 1 week, HPLC) is 99.56 Area %. Further, in series [1] (40° C./75% RH (open), 12 days), the “XRPD-12 days 40° C./75% RH” value is recorded as “Unchanged”. For the same molecule, the “Physical and chemical stability (in words)” value in series [1] (60° C./capped and 40° C./75% RH (open), 12 days) was “physically and chemically stable”. In series [1] (60° C./capped, 1 week, HPLC), the “Purity-1 week (Area %) 60° C./Capped, 1 week” value is 99.54 Area %. Also, the “XRPD-12 days 60° C./Capped” value in series [1] (60° C./capped, 12 days) is on record as “Unchanged”. Moreover, in series [1] (day 0, HPLC), the “Initial Purity (Area %)” value is 99.58 Area %. For the same molecule, the solubility at 24 h in series [2] (FaSSIF, pH 6.45, fassif, FaSSIF, pH 6.45 (24 h)) was 15 µg/mL (≈ 26 µM); in series [2] (FeSSIF, pH 4.95, fessif, FeSSIF, pH 4.95 (24 h)), 11 µg/mL (≈ 19.1 µM). Also, the solubility at 0.5 h was around 5 µg/mL (≈ 8.68 µM) in series [2] (FaSSIF, pH 6.5, fassif, FaSSIF, pH 6.50 (0 h)) and around 10 µg/mL (≈ 17.4 µM) in series [2] (FeSSIF, pH 4.99, fessif, FeSSIF, pH 4.99 (0 h)). Besides, the solubility at 2 h is 6 µg/mL (≈ 10.4 µM) in series [2] (FaSSIF, pH 6.5, fassif, FaSSIF) and 17 µg/mL (≈ 29.5 µM) in series [2] (FeSSIF, pH 4.99, fessif, FeSSIF). The “Solubility in SGF (in words)” value in series [2] (SGF, 37° C.) is “insoluble”. The “XRPD pattern after solubility study” value in series [2] (bio-relevant media, 37° C., up to 24 hours) is on record as “not changed”. Besides, the “XRPD (24 h)” value in series [2] (filter cake after 24 h in FaSSIF, 37° C.) is listed as “Unchanged”; in series [2] (filter cake after 24 h in FeSSIF, 37° C.), “Unchanged”; in series [2] (filter cake after 24 h in SGF, 37° C.), “Unchanged”. Besides, the figures for the “Hygroscopicity (DVS)” value in series [3], in series [3] (listed as crystalline Form I of Compound A free acid) and in series [3] (listed as free acid Form I) were “Slightly”, “slightly hygroscopic” and “slightly hygroscopic”, respectively. For the same molecule, the “DVS weight change to 90% RH” value in series [3] (0 to 90% RH) came out at 0.6%. Further, in series [3] (after DVS test), the “Crystal form after DVS test” value is “remained unchanged”. Moreover, the “DVS weight change 0-80% RH” value in series [3] (from 0 to 80% RH) is around 0.3%.
